In brackets after ≈: the same amount, converted by molar mass.
What follows are compounds tested on Mycobacterium tuberculosis (assay: Antitubercular activity against Mycobacterium tuberculosis H37Rv assessed as bacterial growth incubated for 5 days by resazurin staining based fluorescent plate reader analysis relative to control). Conditions: time 5 day.
Format: functional

Structure (SMILES)	Activity
CCCCCCCCCCS(=O)(=O)CC(=O)NC[C@H]1O[C@@H](n2cnc3c(N)ncnc32)[C@H](O)[C@@H]1O	100%

What follows are compounds tested on Mycobacterium tuberculosis (assay: Antitubercular activity against Mycobacterium tuberculosis H37Rv assessed as inhibition of bacterial growth by colorimetric microdilution broth assay). Conditions: not given.
Format: functional

Structure (SMILES)	MIC
NC[C@H]1O[C@@H](n2cnc3c(N)ncnc32)[C@H](O)[C@@H]1O	> 100 µg/mL

These compounds were tested on Mycobacterium tuberculosis (assay: Antitubercular activity against Mycobacterium tuberculosis). Conditions: not given.
Format: functional

Structure (SMILES)	MIC
NC(=O)CS(=O)(=O)CCCCCCC1C=CC=CC1 (stereo not drawn)	44 µM (≈ 12.6 µg/mL)
CCCCCCCCCCCCCCCCCCCCOP(=O)(O)OC[C@H]1O[C@@H](n2cnc3c(N)ncnc32)[C@H](O)[C@@H]1O	0.9 µM (≈ 0.565 µg/mL)
CCCCCCCCCCCCS(=O)(=O)CC(N)=O	43 µM (≈ 12.5 µg/mL)
CCCCCCCCCCCCOP(=O)(O)OC[C@H]1O[C@@H](n2cnc3c(N)ncnc32)[C@H](O)[C@@H]1O	1.9 µM (≈ 0.98 µg/mL)
CCCCCCCCCCCC(=O)NS(=O)(=O)OC[C@H]1O[C@@H](n2cnc3c(N)ncnc32)[C@H](O)[C@@H]1O	0.2 µM (≈ 0.106 µg/mL)
CCCCCCS(=O)(=O)CC(N)=O	241 µM (≈ 50 µg/mL)
CCCCCCCCCCCCCCCCCCS(=O)(=O)CC(N)=O	> 133 µM
NC(=O)CS(=O)(=O)CCCCCc1ccccc1	46 µM (≈ 12.4 µg/mL)
CCCCCCCCCCS(=O)(=O)CC(N)=O	2.9 µM (≈ 0.764 µg/mL)
CCCCCCCCCS(=O)(=O)CC(N)=O	12 µM (≈ 2.99 µg/mL)
NC(=O)CS(=O)(=O)CCCCc1ccccc1	> 100 µM
Nc1ncnc2c1ncn2[C@@H]1O[C@H](COS(=O)(=O)NC(=O)CCCCCCCCCCOc2ccccc2)[C@@H](O)[C@H]1O	3.1 µM (≈ 1.88 µg/mL)
CCCCCCCS(=O)(=O)CC(N)=O	> 113 µM
CCCCCCCCCOCC(=O)NS(=O)(=O)OC[C@H]1O[C@@H](n2cnc3c(N)ncnc32)[C@H](O)[C@@H]1O	0.1 µM (≈ 0.0531 µg/mL)
CCCCCCCCS(=O)(=O)CC(N)=O	27 µM (≈ 6.35 µg/mL)
[N-]=[N+]=NCCCCCCCCCCCC(=O)NS(=O)(=O)OC[C@H]1O[C@@H](n2cnc3c(N)ncnc32)[C@H](O)[C@@H]1O	0.2 µM (≈ 0.114 µg/mL)

These compounds were tested on Mycobacterium tuberculosis (assay: Antitubercular activity against Mycobacterium tuberculosis H37Rv assessed as inhibition of bacterial growth by BACTEC radiometric assay). Conditions: not given.
Format: functional

Structure (SMILES)	MIC
NC(=O)CS(=O)(=O)CCCCCCC1C=CC=CC1 (stereo not drawn)	12.5 µg/mL (≈ 43.8 µM)
CCCCCCCCS(=O)(=O)CC(=O)O	> 25 µg/mL
NC(=O)CS(=O)(=O)CCCCCc1ccccc1	12.5 µg/mL (≈ 46.4 µM)
NC(=O)CS(=O)(=O)CCCCc1ccccc1	> 25 µg/mL

These compounds were tested on Mycobacterium tuberculosis (assay: Antitubercular activity against Mycobacterium tuberculosis H37Rv assessed as minimum inhibitory concentration incubated for 5 days by resazurin staining based fluorescent plate reader analysis). Conditions: 120 h, time 5 day.
Format: functional

Structure (SMILES)	MIC90
CCCCCCCCCCS(=O)(=O)Cc1nc2ccccc2oc1=O	5.85 µg/mL (≈ 16 µM)
CCCCCCCCCCS(=O)(=O)CC(=O)NC[C@H]1O[C@H](OCc2ccccc2)[C@@H](O)[C@@H](O)[C@@H]1O	> 50 µg/mL
CCCCCCCCCCS(=O)(=O)Cc1cn(CCCCn2c(=O)oc3ccccc32)nn1	> 50 µg/mL
NC(=O)CS(=O)(=O)Cc1ccccc1	> 50 µg/mL
CCCCCCCCCCCS(=O)(=O)CC(N)=O	1.39 µg/mL (≈ 5.01 µM)
CCCCCCCCCCS(=O)(=O)CC(N)=O	1.32 µg/mL (≈ 5.01 µM)
CCCCCCCCCCS(=O)(=O)Cc1cn(C[C@H]2O[C@H](OCc3ccccc3)[C@@H](O)[C@@H](O)[C@@H]2O)nn1	> 50 µg/mL
NC(=O)CS(=O)(=O)CCCCCCCCCCc1ccccc1	13 µg/mL (≈ 38.3 µM)
NC(=O)CS(=O)(=O)CCCCCCCCc1ccccc1	16 µg/mL (≈ 51.4 µM)
CCCCCCCCCCS(=O)(=O)Cc1cn(CCCn2cnc3ccccc32)nn1	> 50 µg/mL
CCCCCCCCCCS(=O)(=O)Cc1cn(C[C@H]2O[C@@H](n3cnc4c(N)ncnc43)[C@H](O)[C@@H]2O)nn1	> 50 µg/mL

From ChEMBL document CHEMBL5537132, “Reassessing the putative molecular Target(s) of potent antitubercular 2-(Alkylsulfonyl)acetamides” (2024)
